Legend:
[1] = target: T1, 5-HT1A receptor (Mus musculus, UniProt Q64264); assay: Forced swim test, alone and after 5-HT1A receptor antagonist NAN-190; type: in vivo, Swiss albino mice; conditions: NAN-190 1 mg/kg p.o. alone
T1 construct: Male Swiss albino mice weighing 25-30 g were treated with antagonist of 5-HT1A receptor (NAN-190); from tissue; host or cells: whole living animal (male Swiss albino mice)
T1 sequence (Q64264 1-421): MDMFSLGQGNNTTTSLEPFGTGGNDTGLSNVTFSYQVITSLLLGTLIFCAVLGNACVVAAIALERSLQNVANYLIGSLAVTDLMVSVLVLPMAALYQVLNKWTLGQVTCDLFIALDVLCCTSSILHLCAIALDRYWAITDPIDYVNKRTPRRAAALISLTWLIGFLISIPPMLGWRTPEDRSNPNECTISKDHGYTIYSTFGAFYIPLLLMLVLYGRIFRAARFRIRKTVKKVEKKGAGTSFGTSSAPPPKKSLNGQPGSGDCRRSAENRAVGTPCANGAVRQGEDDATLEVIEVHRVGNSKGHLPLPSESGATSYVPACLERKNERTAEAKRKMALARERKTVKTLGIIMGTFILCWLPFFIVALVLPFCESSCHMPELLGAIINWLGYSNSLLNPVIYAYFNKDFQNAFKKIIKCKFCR
Experimental: The activity of the test composition was evaluated by first blocking the 5-HT1A receptor with an antagonist followed by treatment with the test composition. The activity was measured in terms of immobility time of the test animals subjected to forced swim test.
Procedure: Male Swiss albino mice weighing 25-30 g were treated with antagonist of 5-HT1A receptor (NAN-190) at 1 mg/kg (p.o.) followed by administration of test composition at either 10 mg/kg (p.o.) or 30 mg/kg (p.o.). One hour after treatment, the animals were subjected to forced swim test and the immobility time was measured. A cut-off time of 360 sec was used.

[2] = tested on: Nitroglycerine induced hyperalgesia in rats; assay: Tail flick response latency in nitroglycerine induced hyperalgesia, oral treatment; test composition 41% asiaticoside and 36% madecassoside; type: in vivo, Wistar rats; conditions: 20 mg/kg p.o.

Row | Structure (SMILES) | Immobility Time [1] [s] | % Reduction in Immobility Time ([1]; vs Normal Control) [%] | Response latency in tail flick ([2]; 0 min after treatment, 20 seconds cut off) | Response latency in tail flick ([2]; 30 min after treatment) | Response latency in tail flick ([2]; 60 min after treatment) | Response latency in tail flick ([2]; 90 min after treatment) | Response latency in tail flick ([2]; 120 min after treatment) | Response latency in tail flick ([2]; 180 min after treatment) | Response latency in tail flick ([2]; 240 min after treatment)
1 | COc1ccccc1N1CCN(CCCCN2C(=O)c3ccccc3C2=O)CC1 [NAN-190] | 232.0 ± 1.63 | −8.26 | – | – | – | – | – | – | –
2 | CC(C)=CCN1CCC2(C)c3cc(O)ccc3CC1C2C (stereo not drawn) [Pentazocine] | – | – | 8.42 ± 0.22 | 15.27 ± 0.26 | 15.23 ± 0.17 | 15.78 ± 0.24 | 15.50 ± 0.48 | 15.18 ± 0.45 | 15.03 ± 0.28

Source: US9254269B2, “Method of managing hypercortisolemia, headache disorders, neuropathic pain and related disorders” (Indus Biotech Private Limited, priority 2011, dated 2016)
